One experiment deals with T1, αIIb TM domain (Homo sapiens, UniProt P08514).
T1 construct: expressed in transfected cells; host or cells: E. coli MM39, pDNToxR-Duet
The experiment can be described thus: DN-TOXCAT heterodimerization. In kind it is cell-based. Conditions: coexpressed in bacterial membranes. How it is done:
Both the affinity and specificity of the membrane protein-binding peptides for their targets when coexpressed in bacterial membranes were assessed with a DN-“TOXCAT” assay (FIGS. 3a-3c). In TOXCAT, a TM sequence of interest is fused to a ToxR protein (TM-ToxR) that binds to the ctx promoter as a dimer, which induces expression of chloramphenicol acetyltransferase (CAT) (W. P. Russ, D. M. Engelman, Proc. Natl. Acad. Sci. U.S.A. 96, 863 (1999); D. Langosch, B. Brosig, H. Kolmar, H. J. Fritz, J. Mol. Biol. 263, 525 (1996)). In the DN assay, the TM1-ToxR fusion protein is coexpressed with a second fusion protein (TM2-ToxR*) containing a nonfunctional mutant of the ToxR domain. TM-driven dimerization leads to a ToxR-ToxR* dimer that is unable to bind the ctx promoter or to induce CAT synthesis (FIG. 3a). The resulting decrease in CAT activity can be used to monitor the formation of a heterodimeric TM complex. […]
Mutants were generated using the QuikChange site-directed mutagenesis kit (Stratagene). […] In order to quantify the effects of mutations to anti-αIIb on the change in heterodimerization relative to wild-type anti-αIIb, a disruption index (or % disruption of heterodimerization) was calculated from the data as follows: […]

A further experiment addresses T2, β3 TM domain (Homo sapiens, UniProt P05106).
T2 construct: expressed in transfected cells; host or cells: E. coli MM39, pDNToxR-Duet
The experiment can be described thus: DN-TOXCAT heterodimerization. In kind it is cell-based. Conditions: coexpressed in bacterial membranes. Here is the method: Both the affinity and specificity of the membrane protein-binding peptides for their targets when coexpressed in bacterial membranes were assessed with a DN-“TOXCAT” assay (FIGS. 3a-3c). In TOXCAT, a TM sequence of interest is fused to a ToxR protein (TM-ToxR) that binds to the ctx promoter as a dimer, which induces expression of chloramphenicol acetyltransferase (CAT) (W. P. Russ, D. M. Engelman, Proc. Natl. Acad. Sci. U.S.A. 96, 863 (1999); D. Langosch, B. Brosig, H. Kolmar, H. J. Fritz, J. Mol. Biol. 263, 525 (1996)). In the DN assay, the TM1-ToxR fusion protein is coexpressed with a second fusion protein (TM2-ToxR*) containing a nonfunctional mutant of the ToxR domain. TM-driven dimerization leads to a ToxR-ToxR* dimer that is unable to bind the ctx promoter or to induce CAT synthesis (FIG. 3a). The resulting decrease in CAT activity can be used to monitor the formation of a heterodimeric TM complex. In principle, this assay could be accomplished by adding an exogenous synthetic peptide (D. Gerber, N. Sal-Man, Y. Shai, J. Mol. Biol. 339, 243 (2004)); however, it is difficult to assure that different peptides will be similarly inserted into the Escherichia coli inner membrane.
For testing the specificity of the designed membrane protein-binding polypeptide sequences against the integrin TM domains, the designed sequences (anti-αIIb and anti-αV) were cloned into MCS1 of the Duet vector and the integrin TM domains into MCS2 of the Duet vector. In this configuration, the integrin TMs compete for the homodimers formed by the polypeptide sequences, with the decrease in CAT signal proportional to the extent of heterodimerization between a given integrin TM and polypeptide sequence relative to the homodimerization of the polypeptide sequence.
Single MM39 colonies containing pDNToxR-Duet constructs from selective plates were chosen, inoculated in 5 mL of LB medium containing 100 μg/mL ampicillin and grown to an OD600 of 0.2 at 37° C. with vigorous shaking. IPTG was added to the medium at a final concentration of 0.1 mM IPTG and grown to an OD600 of 0.7. Purification, immunoblotting, CAT ELISA and MalE complementation assays are essentially as described previously. Li, R., Gorelik, R., Nanda, V., Law, P. B., Lear, J. D., DeGrado, W. F. and Bennett, J. S. J. Biol. Chem. 2004, 279, 26666-26673 (2004). For immunoblotting, anti-MBP (NEB) was used for pccKAN (TOXCAT) constructs, whereas anti-myc (Covance) and anti-HA (Covance) were used for pDNToxR-Duet constructs. CAT ELISA results are an average of 3 independent replicates.

Another experiment deals with T3, αIIbβ3 (Homo sapiens, UniProt P08514).
T3 construct: trapped from a suspension of gel filtered human platelets or CHO cells; endogenous in cells; host or cells: gel-filtered human platelets
T3 sequence (P08514 891-1039 limits assumed): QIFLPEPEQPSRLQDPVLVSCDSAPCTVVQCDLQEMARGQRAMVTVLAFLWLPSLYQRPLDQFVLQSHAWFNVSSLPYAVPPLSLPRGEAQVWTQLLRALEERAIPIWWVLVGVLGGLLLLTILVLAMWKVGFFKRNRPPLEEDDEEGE
T3 sequence (P08514 32-887 partner limits assumed): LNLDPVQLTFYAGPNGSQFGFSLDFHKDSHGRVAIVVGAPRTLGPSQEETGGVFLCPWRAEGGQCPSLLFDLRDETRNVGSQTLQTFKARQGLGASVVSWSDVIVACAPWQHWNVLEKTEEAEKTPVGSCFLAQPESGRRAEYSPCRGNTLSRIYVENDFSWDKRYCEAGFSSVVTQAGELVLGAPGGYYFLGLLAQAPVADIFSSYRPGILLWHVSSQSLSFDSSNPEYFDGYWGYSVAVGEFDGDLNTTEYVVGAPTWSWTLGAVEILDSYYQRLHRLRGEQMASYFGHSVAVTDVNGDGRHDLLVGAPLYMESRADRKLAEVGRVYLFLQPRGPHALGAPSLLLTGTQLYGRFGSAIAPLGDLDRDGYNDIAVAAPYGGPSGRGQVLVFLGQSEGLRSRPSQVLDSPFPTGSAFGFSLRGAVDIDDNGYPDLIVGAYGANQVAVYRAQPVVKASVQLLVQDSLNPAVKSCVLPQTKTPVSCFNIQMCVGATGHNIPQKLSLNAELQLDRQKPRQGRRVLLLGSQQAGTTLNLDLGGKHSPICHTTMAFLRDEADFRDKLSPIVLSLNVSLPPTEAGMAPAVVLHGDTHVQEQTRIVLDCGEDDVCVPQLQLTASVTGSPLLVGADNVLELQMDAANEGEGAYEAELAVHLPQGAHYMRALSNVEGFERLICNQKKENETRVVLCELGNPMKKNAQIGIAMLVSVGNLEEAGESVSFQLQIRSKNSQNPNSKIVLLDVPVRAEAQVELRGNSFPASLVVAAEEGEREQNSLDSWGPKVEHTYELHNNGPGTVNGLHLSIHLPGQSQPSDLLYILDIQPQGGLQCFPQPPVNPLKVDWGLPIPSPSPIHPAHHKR
T3 sequence (P05106 27-788 partner): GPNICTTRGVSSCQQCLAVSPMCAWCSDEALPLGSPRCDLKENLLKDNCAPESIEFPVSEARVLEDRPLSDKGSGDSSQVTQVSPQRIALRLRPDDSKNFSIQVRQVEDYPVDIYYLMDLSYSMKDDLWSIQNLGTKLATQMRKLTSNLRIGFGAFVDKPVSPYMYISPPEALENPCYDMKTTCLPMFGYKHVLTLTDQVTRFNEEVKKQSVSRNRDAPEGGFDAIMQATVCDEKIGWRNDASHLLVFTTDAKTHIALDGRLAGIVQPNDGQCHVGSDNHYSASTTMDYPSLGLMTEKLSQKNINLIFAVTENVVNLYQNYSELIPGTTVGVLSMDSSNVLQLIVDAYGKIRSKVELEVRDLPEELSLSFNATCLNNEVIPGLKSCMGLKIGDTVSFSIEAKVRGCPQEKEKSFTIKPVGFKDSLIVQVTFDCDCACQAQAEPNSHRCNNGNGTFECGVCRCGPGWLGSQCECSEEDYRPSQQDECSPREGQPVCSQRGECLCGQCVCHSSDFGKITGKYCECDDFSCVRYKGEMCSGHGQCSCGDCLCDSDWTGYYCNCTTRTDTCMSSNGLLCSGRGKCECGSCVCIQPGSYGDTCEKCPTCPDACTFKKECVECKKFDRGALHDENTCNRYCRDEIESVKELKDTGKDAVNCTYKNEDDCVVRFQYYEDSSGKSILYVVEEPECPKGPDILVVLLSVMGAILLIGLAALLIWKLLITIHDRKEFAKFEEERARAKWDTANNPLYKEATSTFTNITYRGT
Description: FACS analysis of FITC-fibrinogen binding to platelets. In kind it is cell-based. How it is done:
Freshly isolated platelets were added to 200 μg/ml FITC-conjugated fibrinogen, then incubated with 20 μM ADP or 2 μM of the anti-αIIb polypeptide in the presence or in the absence of 5 mM EDTA for 3 min at room temperature. After incubation, the platelets were fixed with 0.37% formalin in PBS buffer for 10 min, then washed and examined by FACS analysis as previously reported. See Ulmschneider M B et al. Proteins: Struct. Funct. Bioinformat. 59, 252-265 (2005). The polypeptide was added from a DMSO solution such that the final concentration of DMSO was no greater than 0.5%. All controls also had 0.5% DMSO in the buffer.
A general note: Flow cytometry measures light scatter and fluorescence of single cells or particles in a stream.

Experiment [1] concerns the target T4, CHO cells expressing αIIbβ3 (Homo sapiens, UniProt P08514).
T4 construct: expressed in transfected cells; host or cells: CHO cells
Description: Force spectroscopy (laser tweezers), CHO cells and fibrinogen-coated beads. In kind it is cell-based, Chinese hamster. Conditions: 0.5 μM polypeptide. An excerpt: Litvinov R I et al. Proc. Natl. Acad. Sci. USA. 99, 7426-31 (2002). Recombinant human OPN, prepared as previously described (Bennett J S et al. J. Biol. Chem. 272, 8137-40 (1997)) or purified human fibrinogen was covalently bound to 0.93 μm carboxylate-modified latex beads. Individual cells, trapped from a suspension of gel filtered human platelets or CHO cells, were manually attached to 5 μm diameter silica pedestals coated with polylysine. An OPN- or fibrinogen-coated bead, trapped by the laser light, was then brought into proximity of an immobilized cell, oscillated at 50 Hz, and then brought into repeated intermittent contact with the cell by micromanipulation. Data collection was initiated at the first contact between the bead and the cell. Rupture forces following repeated contacts were collected for periods of several seconds to one minute. Individual forces measured during each contact-detachment cycle were collected into 10 pN-wide bins. The number of events in each bin was then plotted against the average force for that bin after normalizing for the total number of interaction cycles. Thus, the percentage of events in a particular force range (bin) represents the probability of rupture events at that tension. […] Therefore, rupture forces in this range were not considered when the data were analyzed. […]

Each structure is given as a SMILES string. Peptide text beside a SMILES is read from it.

T4 sequence (P08514 891-1039 limits assumed): as the sequence (P08514 891-1039 limits assumed) above
T4 sequence (P08514 32-887 partner limits assumed): as the sequence (P08514 32-887 partner limits assumed) above
T4 sequence (P05106 27-788 partner): as the sequence (P05106 27-788 partner) above
T1 sequence (P08514 with tags, fused parts or gaps limits assumed): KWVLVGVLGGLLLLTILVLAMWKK
T2 sequence (P05106 with tags, fused parts or gaps limits assumed): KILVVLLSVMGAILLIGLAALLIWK

As to `CC[C@H](C)[C@H](NC(=O)[C@H](Cc1ccccc1)NC(=O)[C@H](Cc1ccccc1)NC(=O)[C@@H]1CCCN1C(=O)[C@H](CC(C)C)NC(=O)[C@H](CC(C)C)NC(=O)[C@H](CCSC)NC(=O)[C@@H](NC(=O)[C@H](Cc1ccc(O)cc1)NC(=O)[C@H](C)NC(=O)[C@H](CCCCN)NC(=O)[C@@H](N)CCCCN)C(C)C)C(=O)NCC(=O)N[C@@H](CC(C)C)C(=O)N[C@@H](CC(C)C)C(=O)N[C@@H](CC(C)C)C(=O)NCC(=O)N[C@@H](CC(C)C)C(=O)N[C@H](C(=O)N[C@@H](Cc1ccccc1)C(=O)NCC(=O)NCC(=O)N[C@@H](C)C(=O)N[C@@H](Cc1ccccc1)C(=O)N[C@@H](Cc1c[nH]c2ccccc12)C(=O)NCC(=O)N1CCC[C@H]1C(=O)N[C@@H](C)C(=O)N[C@@H](CCCNC(=N)N)C(=O)N[C@@H](Cc1c[nH]cn1)C(=O)N[C@@H](CC(C)C)C(=O)N[C@@H](CCCCN)C(=O)N[C@@H](CCCCN)C(N)=O)[C@@H](C)CC` [anti-αIIb] (H-KKAYVMLLPFFIGLLLGLIFGGAFWGPARHLKK-NH2; N-terminus assumed), the “CAT signal of anti-αIIb-ToxR with αIIb as the DN partner” value on αIIb TM domain is “strongly attenuated”. Further, the “interaction with β3 TM domain” value at β3 TM domain is “failed to significantly interact”. Further, at αIIbβ3 (2.0 μM polypeptide, compared with 20 μM ADP), the “FITC-labeled fibrinogen bound by platelets” value was “comparable amounts”. Moreover, at αIIbβ3 (5 mM EDTA), the “induced fibrinogen binding in the presence of EDTA” value is recorded as “prevented”. The “rupture force between CHO cells expressing αIIbβ3 and fibrinogen-coated beads” value in experiment [1] is “peak of rupture force identical to that seen when platelets were incubated with ADP”. Also, the “rupture force peak after pre-incubation of CHO cells with abciximab” value in experiment [1] (abciximab 200 μg/ml) is given as “not present”.

The values are drawn from patent US8349791B2, “Polypeptides that bind membrane proteins” (The Trustees of the University of Pennsylvania, priority 2006, dated 2013).
